Results: ChEMBL document CHEMBL1201862, “PubChem BioAssay data set” (2004)
Values belong to the compound of their own block, whether it stands above or below them. Calls of active or inactive are those of the source.

What was measured:
[1] = HEp-2 cell cytotoxicity, dose response, cytotoxicity control for RSV inhibitor project, HTS (AID 2410); assay type: functional; settings: human respiratory syncytial virus
[2] = biological target: Peroxisome proliferator-activated receptor gamma (Homo sapiens, UniProt P37231); test: PPARg partial agonists, dose response, cell-based, luminescence, assay provider (AID 504447); assay type: functional
Peroxisome proliferator-activated receptor gamma, sequence (P37231 whole entry): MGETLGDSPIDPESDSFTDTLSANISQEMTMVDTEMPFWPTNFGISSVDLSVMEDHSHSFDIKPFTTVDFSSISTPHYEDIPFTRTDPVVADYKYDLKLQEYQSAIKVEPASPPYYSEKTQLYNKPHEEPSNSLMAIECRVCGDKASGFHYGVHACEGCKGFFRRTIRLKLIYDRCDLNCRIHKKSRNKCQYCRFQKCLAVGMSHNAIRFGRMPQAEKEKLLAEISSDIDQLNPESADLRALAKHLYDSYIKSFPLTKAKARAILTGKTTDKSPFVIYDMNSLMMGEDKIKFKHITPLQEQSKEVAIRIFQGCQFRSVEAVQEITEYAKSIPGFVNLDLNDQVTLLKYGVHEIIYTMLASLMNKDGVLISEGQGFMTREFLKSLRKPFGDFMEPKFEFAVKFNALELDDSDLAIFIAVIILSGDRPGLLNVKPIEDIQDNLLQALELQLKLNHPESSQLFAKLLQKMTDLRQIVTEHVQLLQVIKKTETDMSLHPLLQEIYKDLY

CAAX prenyl protease 2 = biological target: T1, CAAX prenyl protease 2 (Saccharomyces cerevisiae S288c, UniProt Q03530); assay type: biochemical
T1 sequence (Q03530 whole entry): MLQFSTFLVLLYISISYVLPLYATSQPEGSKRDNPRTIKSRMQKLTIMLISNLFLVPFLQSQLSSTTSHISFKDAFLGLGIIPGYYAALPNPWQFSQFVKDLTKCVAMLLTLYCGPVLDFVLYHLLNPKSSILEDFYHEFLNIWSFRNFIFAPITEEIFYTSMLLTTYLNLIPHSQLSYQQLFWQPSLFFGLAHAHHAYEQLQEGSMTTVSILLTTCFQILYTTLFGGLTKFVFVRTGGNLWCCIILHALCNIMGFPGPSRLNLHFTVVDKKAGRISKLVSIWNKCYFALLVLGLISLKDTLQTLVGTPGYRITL

[3] = mammalian cell cytotoxicity, dose response, cytotoxicity control, plate reader, cherry-pick samples (AID 504397); assay type: functional, cell-based
[4] = NIH-3T3 fibroblast cytotoxicity, dose response, cytotoxicity control, cell-based, fluorescence, Alamar Blue, secondary assay (AID 2327); assay type: functional;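 further: NIH-3T3 mouse fibroblasts cultured with fluconazole at 8 µg/mL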
[5] = biological target: T2, Runt-related transcription factor 1/Core-binding factor subunit beta (Homo sapiens, UniProt Q01196+Q13951); test: inhibitors of RUNX1 Runt–CBFb-SMMHC binding, primary screen, biochemical, FRET, Cerulean-Runt, Venus-CBFb-SMMHC, uHTS (AID 1434); assay type: protein assay;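 further: partner is the CBFb-SMMHC leukemia fusion protein rather than wild-type CBFb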
T2 sequence (Q01196 whole entry, the tested form may be a part): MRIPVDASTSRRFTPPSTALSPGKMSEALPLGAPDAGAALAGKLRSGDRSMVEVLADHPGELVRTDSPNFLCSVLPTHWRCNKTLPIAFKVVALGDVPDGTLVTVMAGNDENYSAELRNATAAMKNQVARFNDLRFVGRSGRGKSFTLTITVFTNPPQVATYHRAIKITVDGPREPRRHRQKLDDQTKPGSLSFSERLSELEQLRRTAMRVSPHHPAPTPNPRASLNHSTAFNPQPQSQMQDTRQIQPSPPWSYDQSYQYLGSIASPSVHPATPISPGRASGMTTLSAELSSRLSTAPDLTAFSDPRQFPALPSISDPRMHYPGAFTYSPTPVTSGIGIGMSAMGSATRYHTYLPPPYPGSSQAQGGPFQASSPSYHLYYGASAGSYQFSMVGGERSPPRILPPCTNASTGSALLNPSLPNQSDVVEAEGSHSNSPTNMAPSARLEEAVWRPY
T2 sequence (Q13951 whole entry, the tested form may be a part): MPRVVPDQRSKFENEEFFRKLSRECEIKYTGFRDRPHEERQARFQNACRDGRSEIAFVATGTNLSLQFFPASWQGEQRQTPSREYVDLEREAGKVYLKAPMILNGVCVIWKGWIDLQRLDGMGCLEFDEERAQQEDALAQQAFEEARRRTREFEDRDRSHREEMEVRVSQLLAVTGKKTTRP

[6] = biological target: T2, Runt-related transcription factor 1/Core-binding factor subunit beta; test: inhibitors of RUNX1 Runt–CBFb-SMMHC binding, biochemical, TR-FRET (AID 1438); assay type: protein assay
CHO-K1 = test: (§1) Counterscreen for antagonists of the orexin 1 receptor (OX1R; HCRTR1): Homogeneous time resolved fluorescence (HTRF)-based cell-based dose response assay to identify antagonists of the parental CHO-K1 cell line. [Related pubchem assays (depositor defined):AID434989, AID435008, AID463079, AID485270, AID492963, AID492964, AID492965, AID493232, AID504699, AID504701]; assay type: functional; settings: Cricetulus griseus
[7] = as §1, with “Fluorescence-based” for “Homogeneous time resolved fluorescence (HTRF)-based”, “cell-based high throughput” for “cell-based”, “CHO” for “CHO-K1”; assay type: functional
[8] = biological target: T3, Orexin/Hypocretin receptor type 1 (Homo sapiens, UniProt O43613); test: Homogeneous Time Resolved Fluorescence (HTRF)-based cell-based high throughput dose response assay for antagonists of the orexin 1 receptor (OX1R; HCRTR1). [Related pubchem assays (depositor defined):AID434989, AID435008, AID463079, AID485270, AID492963, AID492964, AID492965, AID493232, AID504717, AID504718]; assay type: functional
T3 sequence (O43613 whole entry): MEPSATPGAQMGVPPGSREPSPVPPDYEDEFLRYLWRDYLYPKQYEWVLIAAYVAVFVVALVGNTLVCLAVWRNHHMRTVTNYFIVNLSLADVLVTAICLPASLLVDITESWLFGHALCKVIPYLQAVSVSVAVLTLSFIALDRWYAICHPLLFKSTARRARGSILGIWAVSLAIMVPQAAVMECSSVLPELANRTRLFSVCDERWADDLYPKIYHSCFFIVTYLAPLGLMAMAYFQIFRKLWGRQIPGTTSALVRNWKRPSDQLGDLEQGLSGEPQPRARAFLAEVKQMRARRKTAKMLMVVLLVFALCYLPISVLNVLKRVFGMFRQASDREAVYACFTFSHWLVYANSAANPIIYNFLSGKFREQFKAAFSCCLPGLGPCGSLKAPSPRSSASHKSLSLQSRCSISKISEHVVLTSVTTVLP

[9] = biological target: T3, Orexin/Hypocretin receptor type 1; test: Fluorescence-based cell-based high throughput dose response assay for antagonists of the orexin 1 receptor (OX1R; HCRTR1). [Related pubchem assays (depositor defined):AID434989, AID435008, AID463079, AID485270, AID492963, AID492964, AID492965, AID493232, AID504717, AID504718]; assay type: functional
Orexin receptor type 2 [10] = biological target: T4, Orexin receptor type 2 (Homo sapiens, UniProt O43614); test: Counterscreen assay for antagonists of the orexin 1 receptor (OX1R; HCRTR1): Fluorescence-based cell-based dose response assay for antagonists of the orexin 2 receptor (OX2R; HCRTR2), run by assay provider.; assay type: functional
T4 sequence (O43614 whole entry): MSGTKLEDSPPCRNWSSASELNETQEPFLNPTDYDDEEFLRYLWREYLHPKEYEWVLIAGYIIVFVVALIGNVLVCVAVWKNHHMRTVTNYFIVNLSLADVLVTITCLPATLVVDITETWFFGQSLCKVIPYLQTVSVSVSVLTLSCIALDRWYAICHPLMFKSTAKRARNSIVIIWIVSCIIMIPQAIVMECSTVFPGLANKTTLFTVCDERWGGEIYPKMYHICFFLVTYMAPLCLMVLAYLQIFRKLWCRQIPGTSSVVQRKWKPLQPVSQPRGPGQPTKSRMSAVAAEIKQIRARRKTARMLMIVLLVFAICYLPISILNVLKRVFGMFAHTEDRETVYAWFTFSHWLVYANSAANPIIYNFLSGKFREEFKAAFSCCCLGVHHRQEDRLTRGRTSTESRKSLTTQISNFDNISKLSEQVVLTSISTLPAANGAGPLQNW

Orexin receptor type 2 [11] = biological target: T4, Orexin receptor type 2; test: Counterscreen assay for antagonists of the orexin 1 receptor (OX1R; HCRTR1): Homogeneous Time Resolved Fluorescence (HTRF)-based cell-based dose response assay for antagonists of the orexin 2 receptor (OX2R; HCRTR2), run by assay provider.; assay type: functional
[12] = biological target: Nucleotide-binding oligomerization domain-containing protein 1 (Homo sapiens, UniProt Q9Y239); test: SAR analysis of compounds that inhibit NOD1 - Set 3. [Related pubchem assays (depositor defined):AID1566, AID1575, AID1578, AID1849, AID1852, AID2333, AID2335, AID2466]; assay type: functional
Nucleotide-binding oligomerization domain-containing protein 1, sequence (Q9Y239 whole entry, the tested form may be a part): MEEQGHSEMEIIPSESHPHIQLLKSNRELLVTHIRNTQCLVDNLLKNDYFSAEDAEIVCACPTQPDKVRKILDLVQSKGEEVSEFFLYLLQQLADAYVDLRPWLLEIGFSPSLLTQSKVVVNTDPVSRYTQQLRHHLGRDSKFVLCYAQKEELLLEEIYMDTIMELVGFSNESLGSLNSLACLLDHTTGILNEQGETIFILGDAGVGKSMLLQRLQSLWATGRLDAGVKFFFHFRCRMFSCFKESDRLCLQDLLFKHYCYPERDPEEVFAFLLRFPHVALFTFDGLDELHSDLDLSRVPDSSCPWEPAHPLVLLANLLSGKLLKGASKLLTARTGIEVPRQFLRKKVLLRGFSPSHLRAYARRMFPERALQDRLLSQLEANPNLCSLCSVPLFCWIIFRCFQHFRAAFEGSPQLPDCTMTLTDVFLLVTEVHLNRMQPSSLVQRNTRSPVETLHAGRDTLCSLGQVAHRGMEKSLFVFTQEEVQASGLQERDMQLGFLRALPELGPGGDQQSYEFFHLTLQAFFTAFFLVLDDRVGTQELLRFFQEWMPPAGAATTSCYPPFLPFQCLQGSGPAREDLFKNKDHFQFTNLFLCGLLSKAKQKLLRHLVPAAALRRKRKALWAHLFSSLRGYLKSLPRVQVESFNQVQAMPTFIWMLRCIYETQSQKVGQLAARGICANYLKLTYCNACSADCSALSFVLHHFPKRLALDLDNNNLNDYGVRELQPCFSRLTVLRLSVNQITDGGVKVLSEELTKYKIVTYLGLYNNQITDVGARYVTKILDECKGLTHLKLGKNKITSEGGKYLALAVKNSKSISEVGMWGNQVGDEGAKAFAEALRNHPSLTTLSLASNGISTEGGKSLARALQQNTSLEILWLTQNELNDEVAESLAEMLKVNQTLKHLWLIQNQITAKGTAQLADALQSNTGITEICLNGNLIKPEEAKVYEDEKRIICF

Tumor necrosis factor = Tumor necrosis factor (Homo sapiens, UniProt P01375); test: TNFa-triggered NF-kB activation inhibitors, SAR follow-up, cell-based, set 3 (AID 2801); assay type: functional
Tumor necrosis factor, sequence (P01375 whole entry): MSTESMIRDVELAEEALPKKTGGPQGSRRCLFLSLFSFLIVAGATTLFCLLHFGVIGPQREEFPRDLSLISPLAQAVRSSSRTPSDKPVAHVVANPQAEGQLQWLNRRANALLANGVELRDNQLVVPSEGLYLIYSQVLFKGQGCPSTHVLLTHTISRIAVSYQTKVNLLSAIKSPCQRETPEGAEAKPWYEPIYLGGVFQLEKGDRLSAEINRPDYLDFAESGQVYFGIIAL

HEK293 = test: SAR analysis of compounds that are cytotoxic to HEK293 - Set 3. [Related pubchem assays (depositor defined):AID1575, AID1578, AID1848, AID1849, AID2001, AID2333, AID2334, AID2335, AID2337, AID2469]; assay type: functional, cell-based; settings: Homo sapiens
[13] = biological target: Nucleotide-binding oligomerization domain-containing protein 2 (Homo sapiens, UniProt Q9HC29); test: NOD2 signaling inhibitors, analog potency, SAR follow-up, cell-based, set 3 (AID 2799); assay type: functional
Nucleotide-binding oligomerization domain-containing protein 2, sequence (Q9HC29 whole entry, the tested form may be a part): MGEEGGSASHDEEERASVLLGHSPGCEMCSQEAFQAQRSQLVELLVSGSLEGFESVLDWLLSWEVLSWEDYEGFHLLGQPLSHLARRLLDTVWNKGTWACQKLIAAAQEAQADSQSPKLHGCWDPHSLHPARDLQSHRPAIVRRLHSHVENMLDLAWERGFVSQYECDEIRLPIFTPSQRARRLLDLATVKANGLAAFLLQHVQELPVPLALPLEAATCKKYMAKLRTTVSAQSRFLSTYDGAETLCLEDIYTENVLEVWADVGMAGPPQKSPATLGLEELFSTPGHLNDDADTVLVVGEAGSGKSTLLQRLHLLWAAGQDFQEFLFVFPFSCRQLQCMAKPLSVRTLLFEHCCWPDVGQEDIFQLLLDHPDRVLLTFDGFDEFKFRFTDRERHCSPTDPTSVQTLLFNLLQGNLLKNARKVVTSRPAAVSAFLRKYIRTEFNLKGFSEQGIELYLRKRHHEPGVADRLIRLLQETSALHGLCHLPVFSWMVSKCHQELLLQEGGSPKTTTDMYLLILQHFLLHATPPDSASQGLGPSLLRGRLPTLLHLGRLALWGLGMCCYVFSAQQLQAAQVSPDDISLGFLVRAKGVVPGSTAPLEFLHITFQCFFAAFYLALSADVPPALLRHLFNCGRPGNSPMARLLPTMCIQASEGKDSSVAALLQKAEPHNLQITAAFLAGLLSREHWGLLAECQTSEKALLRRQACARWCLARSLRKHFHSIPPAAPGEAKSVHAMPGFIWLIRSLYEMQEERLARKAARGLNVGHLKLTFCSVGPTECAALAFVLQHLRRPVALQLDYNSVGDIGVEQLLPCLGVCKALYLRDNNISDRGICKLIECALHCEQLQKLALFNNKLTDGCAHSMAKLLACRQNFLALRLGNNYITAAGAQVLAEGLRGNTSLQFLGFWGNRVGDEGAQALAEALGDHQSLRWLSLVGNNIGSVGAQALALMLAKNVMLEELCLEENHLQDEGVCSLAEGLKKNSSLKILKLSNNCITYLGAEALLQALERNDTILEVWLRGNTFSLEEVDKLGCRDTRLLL

EC50 [2]: 1.6 µM (active)
SMILES: CCOc1ccc(C2c3[nH]c4ccccc4c3CCN2Cc2cccn2-c2ncccn2)cc1 (configuration not stated)
CC50 [1]: 16 µM (active)

SMILES: O=C(c1cn(-c2ccccc2)nc1-c1cccs1)N1CCN(c2ccccn2)CC1
AC50 (CAAX prenyl protease 2): 3.87 µM (active)
AC50 [3]: > 350 µM (inactive)

SMILES: O=C(CN1CCN(c2ccc(O)cc2)CC1)NC(c1ccccc1)c1ccccc1
EC50 [4]: 28.5 µM (active)
IC50 [5]: > 100 µM (inactive)
IC50 [6]: > 100 µM (inactive)

SMILES: CSc1cccc(N2CC(C(=O)NCCN3C(=O)S/C(=C\c4cccnc4)C3=O)CC2=O)c1 (configuration not stated)
IC50 (CHO-K1): 10.5 µM (inactive)
IC50 [7]: > 49.8 µM (inactive)
IC50 [8]: 0.354 µM (active)
IC50 [9]: 3.1 µM (active)
IC50 (Orexin receptor type 2 [10]): 20.6 µM (inactive)
IC50 (Orexin receptor type 2 [11]): > 50 µM (inactive)

SMILES: Cc1ccccc1S(=O)(=O)n1c(N)nc2ccccc21
IC50 [12]: > 20 µM (inactive)
IC50 (Tumor necrosis factor): > 20 µM (inactive)
IC50 (HEK293): > 20 µM (inactive)
IC50 [13]: > 20 µM (inactive)
